Reference: US9321756B2, “Azole compounds as PIM inhibitors” (priority 2011, dated 2016)
Read-outs that look alike come from different tables or passages of the source.

Columns and labels:
[1] = test system: Pim-2 stably transfected U2OS human osteogenic sarcoma line; assay: Pim cell assay U2OS (phospho-BAD normalized against total BAD), Pim-2 transfected; type: cell-based; conditions: Homo sapiens, read-out: U2OS Pim2_Cell_IC50
[2] = biological target: full length recombinant Pim-2 (Homo sapiens (Human), UniProt Q9P1W9); assay: Pim enzyme assay (HTRF, phosphorylation of biotinylated-BAD (S112) peptide), Pim-2; type: biochemical; conditions: read-out: Pim2_IC50
[3] = biological target: full length recombinant Pim-3 (Homo sapiens (Human), UniProt Q86V86); assay: Pim enzyme assay (HTRF, phosphorylation of biotinylated-BAD (S112) peptide), Pim-3; type: biochemical; conditions: read-out: Pim3 IC50
Summary of the method: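 Full-length recombinant Pim-3 phosphorylated biotinylated BAD (S112) peptide in 60 mM Hepes pH 7.0, 0.05% BSA, 2 mM DTT for 1 h 30 min at 22 °C. After EDTA stop, HTRF was read with Eu anti-phospho-BAD and streptavidin-APC. IC50 came from 4-parameter logistic fit of percent-of-control values.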

[4] = biological target: full length recombinant Pim-1 (Homo sapiens (Human), UniProt P11309); assay: Pim enzyme assay (HTRF, phosphorylation of biotinylated-BAD (S112) peptide), Pim-1; type: biochemical
[5] = test system: Pim-1 stably transfected U2OS human osteogenic sarcoma line; assay: Pim cell assay U2OS (phospho-BAD normalized against total BAD), Pim-1 transfected; type: cell-based; conditions: Homo sapiens, U2OS
[6] = Pim-1 enzyme assay, read-out: Pim_1_IC50
[7] = read-out: U2OS Pim1_Cell_IC50, U2OS cells, Pim-1 transfected

Sequence of full length recombinant Pim-1 (P11309 whole entry): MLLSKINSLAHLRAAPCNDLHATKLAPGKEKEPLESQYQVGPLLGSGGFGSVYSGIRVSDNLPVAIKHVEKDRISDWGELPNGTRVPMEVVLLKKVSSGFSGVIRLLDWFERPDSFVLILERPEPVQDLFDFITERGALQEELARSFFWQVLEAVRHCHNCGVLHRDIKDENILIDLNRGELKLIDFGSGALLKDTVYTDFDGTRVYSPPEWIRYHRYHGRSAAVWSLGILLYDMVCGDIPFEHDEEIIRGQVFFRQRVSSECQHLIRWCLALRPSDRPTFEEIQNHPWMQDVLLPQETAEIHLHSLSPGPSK
Sequence of full length recombinant Pim-2 (Q9P1W9 whole entry): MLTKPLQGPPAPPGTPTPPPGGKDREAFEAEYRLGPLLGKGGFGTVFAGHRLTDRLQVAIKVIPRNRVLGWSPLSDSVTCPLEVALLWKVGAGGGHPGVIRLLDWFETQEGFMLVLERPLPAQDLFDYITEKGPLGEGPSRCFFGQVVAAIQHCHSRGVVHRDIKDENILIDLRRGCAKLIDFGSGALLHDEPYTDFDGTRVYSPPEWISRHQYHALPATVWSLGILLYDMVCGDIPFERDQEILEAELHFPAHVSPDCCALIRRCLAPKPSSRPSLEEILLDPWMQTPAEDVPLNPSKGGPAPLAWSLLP

Row | SMILES | IC50 ([2]; Pim-2 enzyme assay) [nM] | IC50 ([3]; Pim-3 enzyme assay) [nM] | IC50 [4, 6] [nM] | IC50 [4] [nM] | IC50 ([1]; U2OS cells, Pim-2 transfected) [nM] | IC50 [5, 7] [nM] | IC50 ([1]; U2OS) [nM] | IC50 [2] [nM] | IC50 [3] [nM] | IC50 ([4]; read-out: Pim_1_IC50) [nM] | IC50 ([5]; read-out: U2OS Pim1_Cell_IC50) [nM]
1 | CC(C)Oc1cccc(-c2c[nH]c3ccc(-c4nnc(N5CC[C@@H](N)C5)s4)cc23)n1 [Example 33, (R)-1-(5-(3-(6-Isopropoxypyridin-2-yl)-1H-indol-5-yl)-1,3,4-thiadiazol-2-yl)pyrrolidin-3-amine 2,2,2-trifluoroacetate] |  |  | 8.84 |  |  | 328 | 19500 | 16.7 | 1.32 |  | 
2 | Nc1nnc(-c2ccc3[nH]cc(-c4cncc(NC5CCCC5)n4)c3c2)s1 [Example 17, 5-(3-(6-(cyclopentylamino)pyrazin-2-yl)-1H-indol-5-yl)-1,3,4-thiadiazol-2-amine 2,2,2-trifluoroacetate] |  |  |  |  |  |  | 1220 | 5.92 | 0.763 | 1.5 | 56.6
3 | Nc1nnc(-c2ccc3[nH]cc(-c4cncc(NC5CCCC5)n4)c3c2)o1 [Example 4, 5-(3-(6-(cyclopentylamino)pyrazin-2-yl)-1H-indol-5-yl)-1,3,4-oxadiazol-2-amine] | 2 | 0.586 | 1.01 |  | 342 |  |  |  |  |  | 27
4 | CC(C)Oc1cccc(-c2c[nH]c3ccc(-c4nnc(N5CC[C@H](N)C5)s4)cc23)n1 [Example 34, (S)-1-(5-(3-(6-Isopropoxypyridin-2-yl)-1H-indol-5-yl)-1,3,4-thiadiazol-2-yl)pyrrolidin-3-amine 2,2,2-trifluoroacetate] |  |  | 10.5 |  |  | 280 | > 31600 | 24.8 | 1.51 |  | 
5 | CNc1nnc(-c2ccc3[nH]cc(-c4cccc(-n5cnc(C)c5)n4)c3c2)s1 [Example 228, N-methyl-5-(3-(6-(4-methyl-1H-imidazol-1-yl)-2-pyridinyl)-1H-indol-5-yl)-1,3,4-thiadiazol-2-amine] | 8.28 | 1.5 | 13.2 |  | > 31600 |  |  |  |  |  | > 31600
6 | CC(C)Oc1cncc(-c2c[nH]c3ccc(-c4nnc(N)o4)cc23)n1 [Example 76, 5-(3-(6-(1-methylethoxy)-2-pyrazinyl)-1H-indol-5-yl)-1,3,4-oxadiazol-2-amine] | 5.18 | 2.47 | 5.59 |  | 636 |  |  |  |  |  | 35.8
7 | CC(C)Cn1cc(-c2c[nH]c3ccc(-c4nnc(N)o4)cc23)cn1 [Example 80, 5-(3-(1-(2-methylpropyl)-1H-pyrazol-4-yl)-1H-indol-5-yl)-1,3,4-oxadiazol-2-amine] | 78 | 67.1 | 47 |  | 3660 |  |  |  |  |  | 142
8 | Nc1nnc(-c2ccc3[nH]cc(-c4cncc(N5CCOCC5)n4)c3c2)o1 [Example 90, 5-(3-(6-(4-morpholinyl)-2-pyrazinyl)-1H-indol-5-yl)-1,3,4-oxadiazol-2-amine] | 13.4 | 6.46 | 8.91 |  | 5420 |  |  |  |  |  | 374
9 | c1cc2[nH]cc(-c3cncc(C4CC4)n3)c2cc1-c1nnc(NC2CNC2)o1 [Example 247, N-3-azetidinyl-5-(3-(6-cyclopropyl-2-pyrazinyl)-1H-indol-5-yl)-1,3,4-oxadiazol-2-amine] | 1.05 | 0.346 | 1.34 |  | > 31600 |  |  |  |  |  | 1940
10 | CNc1nnc(-c2ccc3[nH]cc(-c4ccc5c(c4)OC(C)(C)C5)c3c2)s1 [Example 216, 5-(3-(2,2-dimethyl-2,3-dihydro-1-benzofuran-6-yl)-1H-indol-5-yl)-N-methyl-1,3,4-thiadiazol-2-amine] | 1840 | 91.5 | 187 |  | > 31600 |  |  |  |  |  | 1770
11 | COc1cc(-c2c[nH]c3ccc(-c4nnc(N)s4)cc23)nc(OC)n1 [Example 202, 5-(3-(2,6-dimethoxy-4-pyrimidinyl)-1H-indol-5-yl)-1,3,4-thiadiazol-2-amine] | 87.5 | 11.1 |  | 73.2 |  |  | > 31600 |  |  |  | 238
12 | Nc1nnc(-c2ccc3[nH]cc(-c4cccc(-c5ccc(Cl)cc5)n4)c3c2)s1 [Example 31, 5-(3-(6-(4-chlorophenyl)pyridin-2-yl)-1H-indol-5-yl)-1,3,4-thiadiazol-2-amine] |  |  |  |  | 28300 | 1090 |  | 75.5 | 13.6 | 37.4 | 

Further lines, with some results ahead:

Row | IC50 ([2]; Pim-2 enzyme assay) [nM] | IC50 ([3]; Pim-3 enzyme assay) [nM] | IC50 [4, 6] [nM] | IC50 [4] [nM] | SMILES | IC50 ([1]; U2OS cells, Pim-2 transfected) [nM] | IC50 [5, 7] [nM] | IC50 ([1]; U2OS) [nM] | IC50 [2] [nM] | IC50 [3] [nM] | IC50 ([4]; read-out: Pim_1_IC50) [nM] | IC50 ([5]; read-out: U2OS Pim1_Cell_IC50) [nM]
13 | 28.2 | 3.86 | 8.18 |  | CN(C)c1cncc(-c2c[nH]c3ccc(-c4nnc(N)s4)cc23)n1 [Example 158, 6-(5-(5-amino-1,3,4-thiadiazol-2-yl)-1H-indol-3-yl)-N,N-dimethyl-2-pyrazinamine] | 3040 | 133 |  |  |  |  | 
14 | 7.71 | 1.68 | 1.77 |  | Nc1nnc(-c2ccc3[nH]cc(-c4cncc(NCC5CC5)n4)c3c2)s1 [Example 207, 6-(5-(5-amino-1,3,4-thiadiazol-2-yl)-1H-indol-3-yl)-N-(cyclopropylmethyl)-2-pyrazinamine] | 1090 |  |  |  |  |  | 37.4
15 | 63.1 | 7.13 | 30.9 |  | CCOc1cccc(-c2c[nH]c3ccc(-c4nnc(NC)s4)cc23)n1 [Example 230, 5-(3-(6-ethoxy-2-pyridinyl)-1H-indol-5-yl)-N-methyl-1,3,4-thiadiazol-2-amine] | > 31600 |  |  |  |  |  | 912
16 | 2820 | 85.2 | 223 |  | CSc1nnc(-c2ccc3[nH]cc(-c4cccc(N5CCOCC5)n4)c3c2)s1 [Example 243, 5-(5-(methylsulfanyl)-1,3,4-thiadiazol-2-yl)-3-(6-(4-morpholinyl)-2-pyridinyl)-1H-indole] | > 31600 | 6330 |  |  |  |  | 
17 | 157 | 27 | 40.7 |  | c1cc(-c2c[nH]c3ccc(-c4nncs4)cc23)nc(N2CCOCC2)c1 [Example 28, 4-(6-(5-(1,3,4-thiadiazol-2-yl)-1H-indol-3-yl)pyridin-2-yl)morpholine] | > 31600 |  |  |  |  |  | 1070
18 | 1.39 | 0.435 | 1.4 |  | CC(C)Nc1nnc(-c2ccc3[nH]cc(-c4nccc(C5CC5)n4)c3c2)o1 [Example 264, 5-(3-(4-cyclopropyl-2-pyrimidinyl)-1H-indol-5-yl)-N-(1-methylethyl)-1,3,4-oxadiazol-2-amine] | 238 |  |  |  |  |  | 25.8
19 | 33.6 | 3.98 | 11 |  | CNc1nnc(-c2ccc3[nH]cc(-c4nccc(N5CCN(C)CC5)n4)c3c2)s1 [Example 132, N-methyl-5-(3-(4-(4-methyl-1-piperazinyl)-2-pyrimidinyl)-1H-indol-5-yl)-1,3,4-thiadiazol-2-amine] | 6910 |  |  |  |  |  | 1470
20 | 64.6 | 24.1 | 77 |  | Cc1ccn(-c2cccc(-c3c[nH]c4ccc(-c5nnc(N)s5)cc34)n2)n1 [Example 179, 5-(3-(6-(3-methyl-1H-pyrazol-1-yl)-2-pyridinyl)-1H-indol-5-yl)-1,3,4-thiadiazol-2-amine] | > 31600 |  |  |  |  |  | 816
21 | 37.2 | 5.42 | 20.9 |  | CC(C)Nc1cccc(-c2c[nH]c3ccc(-c4nnc(N)s4)cc23)n1 [Example 203, 6-(5-(5-amino-1,3,4-thiadiazol-2-yl)-1H-indol-3-yl)-N-(1-methylethyl)-2-pyridinamine] | 2190 | 384 |  |  |  |  | 
